pIC50: −log10 of the molar value. Read-outs that look alike come from different tables or passages of the source.
Legend:
[1] = test system: voltage dependent sodium channels; test: Sodium channel activity, guanidine flux; type: cell-based
Protocol: (§2) Biological assays to determine sodium channel activity, neuroprotection and Nav isoform selectivity were carried out according to the protocols set out in Clutterbuck et al (2009), J. Med. Chem. 52, 2694-2707.

Nav1.6 = Nav1.6 (Homo sapiens, UniProt Q9UQD0); test: Nav isoform selectivity, Nav1.6; type: cell-based; set-up: concentration or dose not given beside the values
Nav1.2 = Nav1.2 (Homo sapiens, UniProt Q99250); test: Nav isoform selectivity, Nav1.2 (EP); type: cell-based; set-up: concentration or dose not given beside the values
Nav1.7 = Nav1.7 (Homo sapiens, UniProt Q15858); test: Nav isoform selectivity, Nav1.7; type: cell-based; set-up: concentration or dose not given beside the values
Nav1.3 = Nav1.3 (Homo sapiens, UniProt Q9NY46); test: Nav isoform selectivity, Nav1.3; type: cell-based; set-up: concentration or dose not given beside the values
Nav1.1 = Nav1.1 (Homo sapiens, UniProt P35498); test: Nav isoform selectivity, Nav1.1; type: cell-based
Protocol: as §2

Nav1.5 [2] = molecular target: T1, Nav1.5 (Homo sapiens, UniProt Q14524); test: Nav isoform selectivity, Nav1.5
Nav1.8 = Nav1.8 (Homo sapiens, UniProt Q9Y5Y9); test: Nav isoform selectivity, Nav1.8; type: cell-based; set-up: concentration or dose not given beside the values
Nav1.4 = Nav1.4 (Homo sapiens, UniProt P35499); test: Nav isoform selectivity, Nav1.4; type: cell-based; set-up: concentration or dose not given beside the values
[3] = test system: induced-relapse EAE in ABH mice; test: Induced-relapse experimental autoimmune encephalomyelitis (EAE); type: in vivo
Description: In many rodent models of MS, particularly during EAE the ABH mice, there is limited demyelination and nerve damage during the initial acute-phase of paralysis that occurs 2-3 weeks following sensitization (Baker et al. 1990, Jackson et al. 2005). Nerve damage and demyelination becomes more pronounced with disease duration and the development of relapsing disease (Baker et al. 1990). The neuroprotective potential of Example 15 was therefore examined in an induced-relapse EAE paradigm.
ABH mice were injected with 1 mg mouse spinal cord homogenate in Freunds adjuvant on days 0 and 7 p.i. to induce EAE and this was repeated on 27 p.i. to induce a relapse. Animals were injected daily i.p. with either vehicle or 10 mg/kg Example 15 from day 33 onwards. Animals were monitored for the development of clinical disease and the results represent: (A) The mean maximal clinical score, during the initial acute attack around day 15-20 and the clinical relapse around day 34-40, or the mean minimal clinical score during remission from paralytic attacks. (B) The mean daily clinical score following induction of relapse. (C) The time taken to fall from an accelerating rotorod was monitored pre-treatment on day 25 or on day 48 post-disease induction, when the experiment was terminated. (D) The spinal cords were removed and nerve content was measured using a neurofilament heavy chain (Nfh)-specific ELISA. The results represent the mean±SEM of 8 animals per group. *P<0.05, **P<0.01, ***P<0.001 compared to vehicle-treated animals.

[4] = in vivo
Protocol: (§1) The immunosuppressive activity of Example 15 was investigated using a simple contact-hypersensitivity paradigm. […] (Data not shown). Therefore, it was not necessary to dose-titrate Example 15 in order to avoid the immunosuppression-induced neuroprotection that would mask any real neuroprotective action of Example 15. In order to limit animal usage required for a full-dose-response, as proof-of-principle, 10 mg/kg of Example 15 i.p. was selected as an initial dose for study. This dose was within the range used in humans for sodium channel-blocking agents (1-50 mg/kg p.o.), particularly when scaled to mouse (USDHHS, 2005), and was well below the maximum tolerated dose (>50 mg/kg/daily). This was investigated for a neuroprotective potential in an induced-relapse during experimental autoimmune encephalomyelitis (EAE).

[5] = test system: lymph node proliferative responses; test: Immunosuppressive activity, contact-hypersensitivity paradigm; type: in vivo; conditions: daily i.p. 5, 25 and 50 mg/kg from a day before sensitization; compared to vehicle
Protocol: as §1
T cell proliferation per 5×10^5 lymph node cells or proliferation adjusted for the number of cells in the lymph nodes is shown in FIGS. 2 and 3.

Nav1.5 [6] = molecular target: T1, Nav1.5
[7] = 10 mg/kg daily i.p. from day 33, vs vehicle

Chain of Nav1.4 (P35499 whole entry, canonical isoform): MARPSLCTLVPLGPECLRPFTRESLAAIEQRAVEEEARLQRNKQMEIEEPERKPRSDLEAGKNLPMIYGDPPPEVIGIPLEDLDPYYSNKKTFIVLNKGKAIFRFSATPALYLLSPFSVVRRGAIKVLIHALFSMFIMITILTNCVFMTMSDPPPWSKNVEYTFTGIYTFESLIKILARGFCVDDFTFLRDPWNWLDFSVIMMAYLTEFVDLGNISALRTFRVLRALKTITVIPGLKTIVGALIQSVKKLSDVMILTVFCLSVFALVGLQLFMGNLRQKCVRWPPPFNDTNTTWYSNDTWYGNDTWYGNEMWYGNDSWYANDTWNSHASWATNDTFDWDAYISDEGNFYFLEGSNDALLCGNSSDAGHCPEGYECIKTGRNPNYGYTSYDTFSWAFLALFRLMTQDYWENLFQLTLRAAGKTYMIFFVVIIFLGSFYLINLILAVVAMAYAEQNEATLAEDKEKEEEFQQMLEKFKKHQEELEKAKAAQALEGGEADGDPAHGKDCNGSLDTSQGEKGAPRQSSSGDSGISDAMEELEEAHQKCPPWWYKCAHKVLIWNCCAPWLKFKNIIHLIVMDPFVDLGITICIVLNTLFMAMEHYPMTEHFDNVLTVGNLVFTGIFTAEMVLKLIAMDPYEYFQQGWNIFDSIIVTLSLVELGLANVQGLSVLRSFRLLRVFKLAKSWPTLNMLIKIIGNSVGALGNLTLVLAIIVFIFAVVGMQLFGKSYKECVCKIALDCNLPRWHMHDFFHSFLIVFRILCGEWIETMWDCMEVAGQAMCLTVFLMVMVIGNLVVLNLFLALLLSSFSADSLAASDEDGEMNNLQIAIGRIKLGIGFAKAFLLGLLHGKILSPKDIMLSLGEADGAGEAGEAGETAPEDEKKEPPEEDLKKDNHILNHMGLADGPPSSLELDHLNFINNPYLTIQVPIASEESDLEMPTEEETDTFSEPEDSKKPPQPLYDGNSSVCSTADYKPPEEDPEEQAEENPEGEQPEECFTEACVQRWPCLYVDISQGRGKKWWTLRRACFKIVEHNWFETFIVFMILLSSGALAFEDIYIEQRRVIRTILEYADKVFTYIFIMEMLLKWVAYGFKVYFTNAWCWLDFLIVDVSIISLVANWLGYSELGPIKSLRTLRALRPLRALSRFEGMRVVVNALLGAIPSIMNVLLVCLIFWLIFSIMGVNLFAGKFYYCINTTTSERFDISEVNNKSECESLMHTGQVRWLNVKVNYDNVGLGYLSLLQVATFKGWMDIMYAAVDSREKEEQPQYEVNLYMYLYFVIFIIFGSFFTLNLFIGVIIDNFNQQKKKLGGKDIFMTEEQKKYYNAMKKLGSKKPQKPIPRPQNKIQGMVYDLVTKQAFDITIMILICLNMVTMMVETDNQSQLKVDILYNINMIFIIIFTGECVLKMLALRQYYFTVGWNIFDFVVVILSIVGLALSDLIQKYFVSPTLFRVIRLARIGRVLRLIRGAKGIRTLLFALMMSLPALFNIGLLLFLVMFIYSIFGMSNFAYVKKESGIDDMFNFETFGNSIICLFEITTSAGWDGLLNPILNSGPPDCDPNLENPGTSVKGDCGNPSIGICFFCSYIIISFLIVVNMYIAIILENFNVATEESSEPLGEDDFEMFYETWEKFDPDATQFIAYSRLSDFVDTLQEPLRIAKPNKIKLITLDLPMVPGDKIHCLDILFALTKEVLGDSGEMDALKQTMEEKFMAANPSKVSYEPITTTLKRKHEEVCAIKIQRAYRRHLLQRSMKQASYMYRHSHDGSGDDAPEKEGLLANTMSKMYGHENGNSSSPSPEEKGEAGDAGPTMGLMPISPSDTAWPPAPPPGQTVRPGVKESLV
Chain of Nav1.6 (Q9UQD0 whole entry, canonical isoform): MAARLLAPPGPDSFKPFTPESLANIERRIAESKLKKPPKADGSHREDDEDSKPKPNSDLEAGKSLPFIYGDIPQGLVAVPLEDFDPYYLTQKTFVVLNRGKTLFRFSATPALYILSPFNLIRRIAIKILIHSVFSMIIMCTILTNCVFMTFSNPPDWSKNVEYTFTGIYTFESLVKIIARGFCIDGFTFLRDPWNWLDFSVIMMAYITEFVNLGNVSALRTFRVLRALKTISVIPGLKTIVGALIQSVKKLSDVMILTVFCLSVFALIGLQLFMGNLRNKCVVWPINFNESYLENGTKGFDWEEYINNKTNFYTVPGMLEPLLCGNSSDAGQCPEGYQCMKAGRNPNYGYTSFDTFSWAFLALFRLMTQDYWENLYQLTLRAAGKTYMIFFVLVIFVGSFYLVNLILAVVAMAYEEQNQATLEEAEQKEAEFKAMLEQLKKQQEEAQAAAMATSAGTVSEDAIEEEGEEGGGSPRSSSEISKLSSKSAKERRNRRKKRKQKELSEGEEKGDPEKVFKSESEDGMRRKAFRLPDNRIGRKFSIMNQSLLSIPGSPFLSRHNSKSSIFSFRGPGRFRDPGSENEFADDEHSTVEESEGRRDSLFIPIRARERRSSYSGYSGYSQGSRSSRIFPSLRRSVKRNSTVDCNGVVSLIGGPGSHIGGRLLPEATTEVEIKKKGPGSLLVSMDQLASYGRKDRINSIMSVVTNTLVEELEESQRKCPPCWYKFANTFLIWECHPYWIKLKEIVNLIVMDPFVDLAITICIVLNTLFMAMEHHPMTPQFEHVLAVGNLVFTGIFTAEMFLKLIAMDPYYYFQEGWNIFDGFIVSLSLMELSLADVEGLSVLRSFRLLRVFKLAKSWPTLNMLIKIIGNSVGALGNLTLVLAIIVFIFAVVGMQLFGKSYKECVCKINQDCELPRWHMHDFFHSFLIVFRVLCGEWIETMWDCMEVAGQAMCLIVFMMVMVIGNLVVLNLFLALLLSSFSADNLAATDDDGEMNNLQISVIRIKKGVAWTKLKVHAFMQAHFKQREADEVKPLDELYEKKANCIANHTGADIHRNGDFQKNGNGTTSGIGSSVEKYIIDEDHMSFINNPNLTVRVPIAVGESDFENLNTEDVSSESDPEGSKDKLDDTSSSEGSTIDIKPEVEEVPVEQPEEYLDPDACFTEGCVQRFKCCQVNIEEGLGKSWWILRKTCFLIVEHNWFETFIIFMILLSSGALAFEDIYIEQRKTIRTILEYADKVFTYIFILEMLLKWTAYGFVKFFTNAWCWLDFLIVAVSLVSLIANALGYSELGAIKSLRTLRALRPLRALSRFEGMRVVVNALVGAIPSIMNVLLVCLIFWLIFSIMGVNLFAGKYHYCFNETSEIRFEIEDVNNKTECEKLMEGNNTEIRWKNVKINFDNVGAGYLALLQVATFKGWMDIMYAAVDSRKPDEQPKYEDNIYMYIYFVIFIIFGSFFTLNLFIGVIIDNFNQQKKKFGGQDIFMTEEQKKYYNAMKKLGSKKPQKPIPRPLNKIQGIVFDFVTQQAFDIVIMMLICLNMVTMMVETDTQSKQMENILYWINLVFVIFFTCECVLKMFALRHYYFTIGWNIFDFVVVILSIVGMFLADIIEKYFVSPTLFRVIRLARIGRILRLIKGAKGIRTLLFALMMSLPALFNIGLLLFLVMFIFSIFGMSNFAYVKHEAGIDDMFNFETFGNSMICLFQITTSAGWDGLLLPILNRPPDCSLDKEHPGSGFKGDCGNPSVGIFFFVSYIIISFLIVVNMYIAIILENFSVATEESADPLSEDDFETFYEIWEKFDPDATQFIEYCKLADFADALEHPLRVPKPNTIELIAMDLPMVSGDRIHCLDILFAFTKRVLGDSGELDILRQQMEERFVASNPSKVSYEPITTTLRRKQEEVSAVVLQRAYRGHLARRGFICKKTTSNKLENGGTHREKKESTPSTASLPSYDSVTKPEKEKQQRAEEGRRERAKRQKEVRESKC

SMILES	pIC50 [1]	Nav isoform inhibition (%) Nav1.6 (Nav1.6) [%]	Nav isoform inhibition (%) Nav1.2 EP (Nav1.2) [%]	Nav isoform inhibition (%) Nav1.2 EP UD (Nav1.2)	Nav isoform inhibition (%) Nav1.7 (Nav1.7) [%]	Nav isoform inhibition (%) Nav1.3 (Nav1.3) [%]	Nav isoform inhibition (%) Nav1.1 (Nav1.1) [%]	Nav isoform inhibition (%) Nav1.5 (Nav1.5 [2]) [%]	Nav isoform inhibition (%) Nav1.8 (Nav1.8) [%]	Nav isoform inhibition (%) Nav1.4 (Nav1.4) [%]	also measured
CC(C)(C)OC(=O)NCc1noc(-c2nn(CCn3ccnc3)c3ccccc23)n1 [Example 1, tert-butyl (5-(1-(2-(1H-imidazol-1-yl)ethyl)-1H-indazol-3-yl)-1,2,4-oxadiazol-3-yl)methylcarbamate]	3.99										
CC(C)(C)OC(=O)NCc1noc(-c2c3ccccc3nn2CCn2ccnc2)n1 [Example 2, tert-butyl (5-(2-(2-(1H-imidazol-1-yl)ethyl)-2H-indazol-3-yl)-1,2,4-oxadiazol-3-yl)methylcarbamate]	4.96										
O=C(NCc1noc(-c2c3ccccc3nn2CCn2ccnc2)n1)c1ccccc1 [Example 5, N-((5-(2-(2-(1H-imidazol-1-yl)ethyl)-2H-indazol-3-yl)-1,2,4-oxadiazol-3-yl)methyl)benzamide]	3.49										
COc1cccc(C(=O)NCc2noc(-c3c4ccccc4nn3CCn3ccnc3)n2)c1OC [Example 6, N-((5-(2-(2-(1H-imidazol-1-yl)ethyl)-2H-indazol-3-yl)-1,2,4-oxadiazol-3-yl)methyl)-2,3-dimethoxybenzamide]	4.47	73	24.4	24.1%	96	54	56	99	87	45	
COc1cccc(C(=O)NCc2noc(-c3c4ccccc4nn3CCn3ccnc3)n2)c1OC [Example 7, N-((5-(2-(2-(1H-imidazol-1-yl)ethyl)-2H-indazol-3-yl)-1,2,4-oxadiazol-3-yl)methyl)-2,3-dimethoxybenzamide]	5.40										
O=C(NCc1noc(-c2c3ccccc3nn2CCn2ccnc2)n1)c1ccc(Cl)cc1 [Example 9, N-((5-(2-(2-(1H-imidazol-1-yl)ethyl)-2H-indazol-3-yl)-1,2,4-oxadiazol-3-yl)methyl)-4-chlorobenzamide]	4.66										
O=C(NCc1noc(-c2c3ccccc3nn2CCn2ccnc2)n1)c1cccc(F)c1F [Example 10, N-((5-(2-(2-(1H-imidazol-1-yl)ethyl)-2H-indazol-3-yl)-1,2,4-oxadiazol-3-yl)methyl)-2,3-difluorobenzamide]		76			81	51	54	84	84	77	
O=C(NCc1noc(-c2c3ccccc3nn2CCn2ccnc2)n1)c1ccc2ccccc2c1 [Example 11, N-((5-(2-(2-(1H-imidazol-1-yl)ethyl)-2H-indazol-3-yl)-1,2,4-oxadiazol-3-yl)methyl)-2-naphthamide]		86			33	63	83	98	91	97	
O=C(NCc1noc(-c2c3ccccc3nn2CCn2ccnc2)n1)c1cccc(OC(F)(F)F)c1 [Example 14, N-((5-(2-(2-(1H-imidazol-1-yl)ethyl)-2H-indazol-3-yl)-1,2,4-oxadiazol-3-yl)methyl)-3-(trifluoromethoxy)benzamide]	4.49	79	98.5	not detected	46	41	96	95	94	98	
O=C(NCc1noc(-c2nn(CCn3ccnc3)c3ccccc23)n1)c1ccccc1 [Example 15, N-((5-(1-(2-(1H-imidazol-1-yl)ethyl)-1H-indazol-3-yl)-1,2,4-oxadiazol-3-yl)methyl)benzamide]											Loss of motor-function as a consequence of relapse, rotarod ([3]; 10 mg/kg daily i.p. from day 33, day 48, vs vehicle): significantly (P<0.001) reduced; Incidence, onset or maximum severity of relapsing EAE [3, 7]: did not significantly (P>0.05) inhibit; Nerve loss in spinal cord, neurofilament heavy chain ELISA [3, 7]: reduce nerve loss; Recovery of motor-function during remission (clinical score) [3, 7]: significantly (P<0.01) greater degree of recovery; Maximum tolerated dose [4]: > 50 mg/kg/daily; Inhibition of lymph node proliferative responses [5]: failed to inhibit
COc1ccc(C(=O)NCc2noc(-c3nn(CCn4ccnc4)c4ccccc34)n2)c(OC)c1OC [Example 16, N-((5-(1-(2-(1H-imidazol-1-yl)ethyl)-1H-indazol-3-yl)-1,2,4-oxadiazol-3-yl)methyl)-2,3,4-trimethoxybenzamide]		63	1.1	1.5%	96	39	24		48	43	Nav isoform inhibition (%) Nav1.5 (Nav1.5 [6]): 64%
COc1cccc(C(=O)NCc2noc(-c3nn(CCn4ccnc4)c4ccccc34)n2)c1OC [Example 30, N-((5-(1-(2-(1H-imidazol-1-yl)ethyl)-1H-indazol-3-yl)-1,2,4-oxadiazol-3-yl)methyl)-2,3-dimethoxybenzamide]		77	0.1	6.4%	94	14	26	71	62	33	

From patent US20120283295A1, “INDAZOLE DERIVATIVES AND THEIR USE FOR BLOCKADING VOLTAGE DEPENDENT SODIUM CHANNELS” (University College London, priority 2009, published 2012)
